Test results: publication PMC7316895, “Identification of a Compound That Inhibits the Growth of Gram-Negative Bacteria by Blocking BamA–BamD Interaction” (Frontiers in Microbiology, 2020)

Biological target: T1, BamA (Escherichia coli, UniProt P0A940)
T1 construct: biotinylated for BLI
Test: biolayer interferometry ([…] global fit); supported by GST pull-down showing dose-dependent loss of BamA–BamD interaction
Format: binding

COC(=O)c1c(NC(=O)c2ccc([N+](=O)[O-])o2)sc2c1CCN(C(C)C)C2 [IMB-H4] was tested. Which Kd did it give?
The Kd was 3.90E^–6.
